According to patent US4735947A, “Methyllevallorphanium salts having peripheral opiate antagonistic activity” (Sanofi, priority 1983, dated 1988):
Where a name gives a salt, the structure may show the parent alone.

Key:
[1] = test system: analgesic and constipating effects of morphine; experiment: index of peripheral activity (hot-plate analgesia test versus charcoal meal constipation test); type: in vivo, mice; settings: for ID50a/ID50c: index of the peripheral activity; for peripheral selectivity (analgesic versus constipating effect), in words: conditions of Table I
Protocol: (§1) The antagonism to the peripheral action of opiates is assessed on the basis of the percent inhibition of the analgesic and of the constipating effects of morphine. The ratio between the dose which inhibits by 50% the analgesic effect of morphine and the dose which inhibits by 50% its constipating effect represents the index of the peripheral activity.
(§2) The antagonism to the analgesic effect of morphine was assessed by the hot-plate analgesia test according to P. A. Janssen et al. (J. Pharm. Pharmacol. 1957, 9, 381-400) by using fasting (18 hours) female mice of 20-22 g. Morphine was injected subcutaneously (24 mg/kg) thirty minutes before the beginning of the test. The antagonist was injected subcutaneously 5 minutes before the morphine. The antagonistic activity was expressed as ID50 of the morphine antinociceptive effect, calculated on the basis of the log dose reaction time regression of the animals treated with different doses of the products under testing.
(§3) The antagonism to the morphine constipating effect of the methyl levallorphanium salts of the present invention was assessed according to the test described by A. F. Green (Br. J. Pharm. Chemother. 1959, 14, 26-34), slightly modified.
(§4) Three groups of fasting (20 hours) female mice of about 20 g were used. To a control group, a meal consisting of 0.2 ml of a mixture of 5% arabic gum (6 ml), flour (2 g) and charcoal (1 g) was administered by oral route. The second group was treated with 12 mg/kg of morphine s.c. and, immediately afterwards, with the above charcoal meal. […] After 30 minutes, the animals were sacrificed to assess the portion of intestine through which the charcoal had passed, expressed as percent of the total length of the small intestine.
(§5) The doses which inhibit by 50% the analgesic effect (ID50a) and the constipating effect (ID50c) have been extrapolated from least square log dose-response line by applying the analysis of the variance by linear regression.

[2] = test system: analgesic effect of morphine; experiment: antagonism to the analgesic effect of morphine, hot-plate analgesia test (P. A. Janssen et al.); type: in vivo, mice; settings: for Antagonism to the analgesic effect ID50a / ED50: female mice, antagonist s.c. 5 min before morphine 24 mg/kg s.c.; for ED50: read-out: Antagonism to the analgesic effect ID50a
Protocol: as §1, §2, §5

[3] = test system: constipating effect of morphine; experiment: antagonism to the morphine constipating effect, charcoal meal test (A. F. Green, slightly modified); type: in vivo, mice; settings: for Antagonism to the constipating effect ID50c / ED50: charcoal meal, female mice, antagonist s.c. 5 min before morphine 12 mg/kg s.c.; for ED50: Mus musculus, sc, read-out: Antagonism to the constipating effect ID50c
Protocol: as §1, §3, §4, §5

[4] = test system: opiate; settings: reported in earlier literature or filings; cited from earlier work

Row | Compound | ID50a/ID50c [1] | Antagonism to the analgesic effect ID50a [2] | Antagonism to the constipating effect ID50c [3] | peripheral antagonistic activity / opiate antagonistic activity [4] | peripheral selectivity (analgesic versus constipating effect), in words [1] | ED50 [3] | peripheral opiate antagonism, in words ([3]; conditions of Table I) | ED50 ([2]; Mus musculus, sc) | inhibition at 30 mg/kg ([2]; Mus musculus, sc, at 30 mg/kg s.c., mice, read-out: inhib. of the analgesic effect of morphine) | inhibition at 60 mg/kg ([2]; Mus musculus, sc, at 60 mg/kg s.c., mice, read-out: inhib. of the analgesic effect of morphine)
1 | C=CC[N+]1(C)CC[C@]23CCCC[C@H]2[C@H]1Cc1ccc(O)cc13 (single isomer, unassigned) [methyllevallorphanium mesilate] | > 8 | > 60 mg/kg | 7.4 mg/kg |  |  |  |  |  |  | 
2 | C=CC[N+]1(C)CC[C@]23c4c5ccc(O)c4O[C@H]2C(=O)CC[C@@]3(O)[C@H]1C5.COS(=O)(=O)[O-] (stereo partly drawn) [naloxone sulfomethylate] | 0.27 | 1.6 mg/kg | 5.8 mg/kg |  |  |  |  |  |  | 
3 | C=CC[N+]1(CC=C)CC[C@]23CCCC[C@H]2[C@H]1Cc1ccc(O)cc13 [levallorphan bromoallylate] | 0.97 |  |  | peripheral narcotic antagonist | the ratio between its ID50a and ID50c is by far lower than that of the compounds of the present invention | 15.7 mg/kg | good opiate peripheral antagonist |  |  | 
4 | C=CCN1CC[C@]23c4c5ccc(O)c4O[C@H]2C(=O)CC[C@@]3(O)[C@H]1C5 [naloxone, N-allylnoroxymorphone] | 0.08 |  |  |  | more active as antagonists of the analgesic effect than as antagonists of the constipating effect | 0.75 mg/kg |  | 0.06 mg/kg |  | 
5 | C=CCN1CC[C@]23CCCC[C@H]2[C@H]1Cc1ccc(O)cc13 [levallorphan tartrate] | 0.01 |  |  |  | more active as antagonists of the analgesic effect than as antagonists of the constipating effect | 5.5 mg/kg |  | 0.03 mg/kg |  | 
6 | C=CC[N+]1(C)CC[C@]23CCCC[C@H]2[C@H]1Cc1ccc(O)cc13 (single isomer, unassigned) [methyllevallorphanium methylsulfate] | ~ 12 |  |  |  |  | 4.9 mg/kg |  | ~60 mg/kg | 41% | 49%
